Values quoted from earlier work as cited in patent publication US20260125680A1, “COMPOSITIONS AND METHODS FOR IMMUNE CHECKPOINT INHIBITION” (The General Hospital Corporation, priority 2018, published 2026).

Legend:
pancreatic cancer = conditions: monotherapy
bladder cancer = conditions: confirmatory trial

Substance	response (pancreatic cancer)	primary endpoint of overall survival (bladder cancer)
Ipilimumab: anti-CTLA-4	ineffective with no responders	–
atezolizumab: FDA approved PD-L1 inhibitor	–	failed to achieve its primary endpoint
